# From patent US12492370B2, “Method for producing protein using a Talaromyces cellulolyticus strain having reduced activity of PEP4” (AJINOMOTO CO., INC., priority 2020, dated 2025)
# Non-standard residues stand in square brackets, D forms with d. Residues, ends and D or L forms follow the SMILES beside them. *: point of attachment. Sta = CC(C)C[C@H](N)[C@@H](O)CC(=O)O; Isovaleryl = CC(C)CC(=O)*
# Columns and labels:
# [1] = tested on: protease activity of the culture supernatant of the control strain; assay: Protease activity of control strain culture supernatant with pepstatin A added; type: biochemical, Talaromyces cellulolyticus
# Protocol: (§1) The protein concentration of the culture supernatant of each strain was measured using Protein Assay CBB (Nacalai Tesque). To confirm protease activity against casein, protease activity was measured using Amplite™ Universal Fluorimetric Protease Activity Assay Kit *Green (AAT Bioquest, Inc.). At the same time, protease activity was also measured under conditions in which an aspartate protease inhibitor pepstatin A was added.
# (§2) A 50-μL aliquot of a 2× assay buffer included in the kit containing 0.5 μL of a protease substrate included in the kit (green fluorescent casein substrate) was dispensed into a 96-well plate (Greiner, product number: 655090), and 50 μL of the culture supernatants of the control strain and the Δpep4 strain were added to respective wells. Under conditions with pepstatin A addition, pepstatin A (Sigma-Aldrich, product number: P2032) was added at a final concentration of 10 μM. Protease activity was measured by measuring Relative Fluorescence Units (RFU, excitation/emission=490/525 nm) every 2 minutes at 37° C. using a microplate reader system SpectraMax® M2 (Molecular Devices). The obtained RFU was divided by the total amount of protein used in the measurement and the reaction time, to thereby calculate the protease specific activity per total amount of protein in the culture supernatant. In the table, the term “relative activity” represents the ratio of the protease specific activity of each sample to the protease specific activity of the control strain in the absence of pepstatin A. In the absence of pepstatin A, the protease specific activity of the culture supernatant of the Δpep4 strain was reduced to approximately 36% of that of the control strain.
# [2] = tested on: protease activity of the culture supernatant of the Δpep4 strain; assay: Protease activity of Δpep4 strain culture supernatant with pepstatin A added; type: biochemical, Talaromyces cellulolyticus
# Protocol: as §1, §2
# [3] = Pepstatin A 10 μM, ratio to control strain in the absence of pepstatin A
smiles,measurement,setting,value
"CC(C)CC(=O)N[C@H](C(=O)N[C@H](C(=O)N[C@@H](CC(C)C)[C@@H](O)CC(=O)N[C@@H](C)C(=O)N[C@@H](CC(C)C)[C@@H](O)CC(=O)O)C(C)C)C(C)C [Pepstatin A, pepstatin A] (Isovaleryl-VV[Sta]A[Sta]-OH)",Protease specific activity,"[1]; Pepstatin A 10 μM, 37° C.",0.006 RFU/ug/min
same,Relative activity,[1]; [3],12%
same,protease specific activity inhibited by pepstatin A,[1]; pepstatin A 10 μM,about 88%
same,Protease specific activity,"[2]; Pepstatin A 10 μM, 37° C.",0.016 RFU/ug/min
same,Relative activity,[2]; [3],34%
same,difference in protease specific activity between presence or absence of pepstatin A,[2]; pepstatin A 10 μM,almost no difference
